{
  "source": "ChEMBL document CHEMBL4308854",
  "about": "“Novel indole-thiazolidinone conjugates: Design, synthesis and whole-cell phenotypic evaluation as a novel class of antimicrobial agents” (Eur J Med Chem, 2018)",
  "key": {"[1]": {"test_system": "Staphylococcus aureus", "experiment": "Antibacterial activity against Staphylococcus aureus RCMB 010028 assessed as diameter of zone inhibition after 24 hrs by agar well diffusion assay; further: test concentration or dose not given here", "format": "functional"}, "[2]": {"test_system": "Staphylococcus aureus", "experiment": "Antibacterial activity against Staphylococcus aureus RCMB 010028 after 24 hrs by serial dilution method", "format": "functional", "conditions": "RCMB 010028, 24 h"}, "[3]": {"test_system": "Pseudomonas aeruginosa", "experiment": "Antibacterial activity against Pseudomonas aeruginosa RCMB 010043 assessed as diameter of zone inhibition after 24 hrs by agar well diffusion assay; further: test concentration or dose not given here", "format": "functional"}, "[4]": {"test_system": "Escherichia coli", "experiment": "Antibacterial activity against Escherichia coli RCMB 010052 assessed as diameter of zone inhibition after 24 hrs by agar well diffusion assay; further: test concentration or dose not given here", "format": "functional"}, "[5]": {"test_system": "Pseudomonas aeruginosa", "experiment": "Antibacterial activity against Pseudomonas aeruginosa RCMB 010043 after 24 hrs by serial dilution method", "format": "functional", "conditions": "RCMB 010043, 24 h"}, "[6]": {"test_system": "Escherichia coli", "experiment": "Antibacterial activity against Escherichia coli RCMB 010052 after 24 hrs by serial dilution method", "format": "functional", "conditions": "RCMB 010052, 24 h"}, "[7]": {"test_system": "Enterococcus faecium", "experiment": "Antibacterial activity against vancomycin-resistant Enterococcus faecium ATCC 700221 after 24 hrs by serial dilution method", "format": "functional", "conditions": "ATCC 700221, 24 h"}, "[8]": {"test_system": "Mycobacterium tuberculosis", "experiment": "Antitubercular activity against Mycobacterium tuberculosis RCMB 010126 clinical isolate after 4 days by microplate alamar blue assay", "format": "functional"}, "[9]": {"test_system": "Aspergillus fumigatus", "experiment": "Antifungal activity against Aspergillus fumigatus RCMB 02568 after 24 hrs by serial dilution method", "format": "functional", "conditions": "RCMB 02568, 24 h"}, "[10]": {"test_system": "Aspergillus fumigatus", "experiment": "Antifungal activity against Aspergillus fumigatus RCMB 02568 assessed as diameter of zone inhibition after 48 hrs by agar well diffusion assay; further: test concentration or dose not given here", "format": "functional"}, "[11]": {"test_system": "Candida albicans", "experiment": "Antifungal activity against Candida albicans RCMB 05036 assessed as diameter of zone inhibition after 48 hrs by agar well diffusion assay; further: test concentration or dose not given here", "format": "functional"}, "[12]": {"test_system": "Candida albicans", "experiment": "Antifungal activity against Candida albicans RCMB 05036 after 24 hrs by serial dilution method", "format": "functional", "conditions": "RCMB 05036, 24 h"}, "[13]": {"test_system": "Mycolicibacterium aurum", "experiment": "Antitubercular activity against Mycobacterium aurum infected in mouse RAW264.7 cells measured after 48 hrs", "format": "functional"}, "[14]": {"experiment": "Cytotoxicity against mouse RAW264.7 cells", "format": "cell-based"}, "[15]": {"experiment": "Selectivity index, ratio of GI50 for mouse RAW264.7 cells to MIC for Mycobacterium aurum infected in mouse RAW264.7 cells", "format": "toxicity, cell-based", "conditions": "read-out: Selectivity Index"}, "[16]": {"test_system": "Staphylococcus aureus", "experiment": "Antibacterial activity against methicillin-resistant Staphylococcus aureus ATCC 33592 after 24 hrs by serial dilution method", "format": "functional", "conditions": "ATCC 33592, 24 h"}, "[17]": {"test_system": "WI-38", "experiment": "Cytotoxicity against human WI38 cells by MTT assay", "format": "cell-based"}, "[18]": {"experiment": "Selectivity index, ratio of IC50 for human WI38 cells to MIC for Mycobacterium tuberculosis RCMB 010126 clinical isolate", "format": "toxicity", "conditions": "read-out: Selectivity Index"}, "[19]": {"test_system": "Mycobacterium tuberculosis", "experiment": "Potency index, ratio of isoniazid MIC to compound MIC for antitubercular activity against Mycobacterium tuberculosis RCMB 010126 clinical isolate", "format": "functional"}, "[20]": {"test_system": "Aspergillus fumigatus", "experiment": "Potency index, ratio of amphotericin B MIC to compound MIC for antifungal activity against Aspergillus fumigatus RCMB 02568", "format": "functional"}, "[21]": {"test_system": "Staphylococcus aureus", "experiment": "Potency index, ratio of ciprofloxacin MIC to compound MIC for Staphylococcus aureus RCMB 010028", "format": "functional"}, "[22]": {"test_system": "Pseudomonas aeruginosa", "experiment": "Potency index, ratio of ciprofloxacin MIC to compound MIC for Pseudomonas aeruginosa RCMB 010043", "format": "functional"}, "[23]": {"test_system": "Escherichia coli", "experiment": "Potency index, ratio of ciprofloxacin MIC to compound MIC for Escherichia coli RCMB 010052", "format": "functional"}, "[24]": {"test_system": "Aspergillus fumigatus", "experiment": "Potency index, ratio of amphotericin B MIC to compound MIC for Aspergillus fumigatus RCMB 02568", "format": "functional"}, "[25]": {"experiment": "Stability in mouse RAW264.7 cells measured after 48 hrs", "format": "ADME, cell-based", "conditions": "raw264.7, 48 h"}, "[26]": {"test_system": "Mycobacterium tuberculosis", "experiment": "Antitubercular activity against Mycobacterium tuberculosis RCMB 010126 after 7 days by microplate alamar blue assay", "format": "functional", "conditions": "RCMB 010126, 168 h"}, "[27]": {"experiment": "Selectivity index, ratio of IC50 for human WI38 cells to MIC for Mycobacterium tuberculosis RCMB 010126", "format": "toxicity", "conditions": "read-out: Selectivity Index"}},
  "data": [
    {"smiles": "O=C(O)c1cn(C2CC2)c2cc(N3CCNCC3)c(F)cc2c1=O", "note": "[CIPROFLOXACIN]", "values": [
      {"measurement": "diameter of the inhibition zone (DIZ)", "setting": "[1]", "value": 22.2, "unit": "mm"},
      {"measurement": "MIC", "setting": "[2]", "value": 1.95, "unit": "µg/mL"},
      {"measurement": "diameter of the inhibition zone (DIZ)", "setting": "[3]", "value": 23.1, "unit": "mm"},
      {"measurement": "diameter of the inhibition zone (DIZ)", "setting": "[4]", "value": 24.3, "unit": "mm"},
      {"measurement": "MIC", "setting": "[5]", "value": 3.9, "unit": "µg/mL"},
      {"measurement": "MIC", "setting": "[6]", "value": 1.95, "unit": "µg/mL"},
      {"measurement": "MIC", "setting": "[7]", "value": 3.9, "unit": "µg/mL"}
    ]},
    {"smiles": "CC(=O)c1sc(/N=C2\\NC(=O)/C(=C3/C(=O)N(C)c4ccccc43)S2)nc1C", "values": [
      {"measurement": "inhibition (INH)", "setting": "[8]", "value": 76.35, "unit": "%"},
      {"measurement": "MIC", "setting": "[8]; Mycobacterium tuberculosis, RCMB 010126, 96 h", "value": 0.39, "unit": "µg/mL"},
      {"measurement": "diameter of the inhibition zone (DIZ)", "setting": "[1]", "value": 23.4, "unit": "mm"},
      {"measurement": "MIC", "setting": "[2]", "value": 0.98, "unit": "µg/mL"},
      {"measurement": "diameter of the inhibition zone (DIZ)", "setting": "[3]", "value": 23.2, "unit": "mm"},
      {"measurement": "diameter of the inhibition zone (DIZ)", "setting": "[4]", "value": 25.1, "unit": "mm"},
      {"measurement": "MIC", "setting": "[5]", "value": 0.98, "unit": "µg/mL"},
      {"measurement": "MIC", "setting": "[6]", "value": 0.49, "unit": "µg/mL"},
      {"measurement": "MIC", "setting": "[9]", "value": 0.98, "unit": "µg/mL"},
      {"measurement": "diameter of the inhibition zone (DIZ)", "setting": "[10]", "value": 23.2, "unit": "mm"},
      {"measurement": "diameter of the inhibition zone (DIZ)", "setting": "[11]", "value": 25.1, "unit": "mm"},
      {"measurement": "MIC", "setting": "[12]", "value": 0.49, "unit": "µg/mL"},
      {"measurement": "MIC", "setting": "[13]", "value": 50, "unit": "µg/mL"},
      {"measurement": "GI50", "setting": "[14]", "value": "> 250", "unit": "µg/mL"},
      {"measurement": "selectivity ratio", "setting": "[15]", "value": "> 5"},
      {"measurement": "MIC", "setting": "[16]", "value": 15.6, "unit": "µg/mL"},
      {"measurement": "MIC", "setting": "[7]", "value": 62.5, "unit": "µg/mL"},
      {"measurement": "IC50", "setting": "[17]", "value": 5.3, "unit": "µg/mL"},
      {"measurement": "selectivity ratio", "setting": "[18]", "value": 13},
      {"measurement": "Ratio", "setting": "[19]", "value": 2},
      {"measurement": "Ratio", "setting": "[20]", "value": 2},
      {"measurement": "Ratio", "setting": "[21]", "value": 2},
      {"measurement": "Ratio", "setting": "[22]", "value": 4},
      {"measurement": "Ratio", "setting": "[23]", "value": 4},
      {"measurement": "Ratio", "setting": "[24]", "value": 2},
      {"measurement": "Stability", "setting": "[25]", "value": "Stable"}
    ]},
    {"smiles": "CCOC(=O)c1sc(/N=C2\\NC(=O)/C(=C/c3cccnc3)S2)nc1C", "values": [
      {"measurement": "MIC", "setting": "[26]", "value": 1.56, "unit": "µg/mL"},
      {"measurement": "selectivity ratio", "setting": "[27]", "value": 52.1}
    ]}
  ]
}
